“And” between values parts separate entries of the source, which are not always exact repeats. Identical values can stand only once. Ends that are not written are not given here.
Assays:
[1] = system: cynomolgus monkey plasma proteins; assay: Protein binding in cynomolgus monkey plasma (ultracentrifugation); details: Cynomolgus monkey plasma (K2EDTA); 2 μM; 2.5 h at 37 °C
[2] = as above; details: plasma (K2EDTA), pH 7.4
CYP1A2 = biological target: T1, CYP1A2 (Homo sapiens, UniProt P05177); details: microsomes
T1 sequence (P05177 1-516): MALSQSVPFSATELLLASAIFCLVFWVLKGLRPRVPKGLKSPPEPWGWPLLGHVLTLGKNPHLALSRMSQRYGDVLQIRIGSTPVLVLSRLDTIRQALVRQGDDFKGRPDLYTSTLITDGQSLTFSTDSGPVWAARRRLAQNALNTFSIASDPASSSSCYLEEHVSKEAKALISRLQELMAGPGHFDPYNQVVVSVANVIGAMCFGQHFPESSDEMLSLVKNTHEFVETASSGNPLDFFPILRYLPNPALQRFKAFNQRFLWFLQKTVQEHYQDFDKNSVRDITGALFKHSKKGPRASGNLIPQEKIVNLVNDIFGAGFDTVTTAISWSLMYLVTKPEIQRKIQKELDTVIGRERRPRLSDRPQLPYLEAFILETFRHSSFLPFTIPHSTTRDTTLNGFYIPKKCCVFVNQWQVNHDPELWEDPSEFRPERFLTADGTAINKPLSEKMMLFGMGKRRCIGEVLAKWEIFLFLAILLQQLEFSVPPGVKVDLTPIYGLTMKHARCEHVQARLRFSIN

[3] = Metabolic stability in CD-1 mouse liver microsomes; format: in vitro ADME
CYP2C9 = CYP2C9 (Homo sapiens, UniProt P11712); details: microsomes
CYP2C9, sequence (P11712 whole entry): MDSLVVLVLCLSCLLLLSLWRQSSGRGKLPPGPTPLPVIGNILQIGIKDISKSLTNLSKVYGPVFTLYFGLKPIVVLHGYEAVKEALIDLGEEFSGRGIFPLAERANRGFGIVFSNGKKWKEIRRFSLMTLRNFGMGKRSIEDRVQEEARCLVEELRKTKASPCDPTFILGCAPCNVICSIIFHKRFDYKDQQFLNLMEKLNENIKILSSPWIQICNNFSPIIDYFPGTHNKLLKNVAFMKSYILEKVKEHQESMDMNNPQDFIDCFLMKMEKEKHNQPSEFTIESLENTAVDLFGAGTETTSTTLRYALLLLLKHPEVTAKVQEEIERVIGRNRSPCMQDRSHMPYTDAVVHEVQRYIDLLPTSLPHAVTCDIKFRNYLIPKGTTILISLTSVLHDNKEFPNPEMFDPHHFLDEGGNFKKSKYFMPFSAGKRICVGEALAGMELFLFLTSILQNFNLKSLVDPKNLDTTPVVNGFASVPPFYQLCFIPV

[4] = Protein binding in CD-1 mouse plasma (ultracentrifugation); details: CD-1, mouse, plasma (K2EDTA)
[5] = system: CD-1 mouse plasma proteins; assay: as above; details: CD-1 mouse plasma (K2EDTA); 2 μM; 2.5 h at 37 °C
[6] = Metabolic stability in cryopreserved cynomolgus monkey hepatocytes; format: in vitro ADME; details: Cynomolgus monkey hepatocytes 0.5 million cells/mL
[7] = Metabolic stability in human liver microsomes; format: in vitro ADME
CYP2C19 = CYP2C19 (Homo sapiens, UniProt P33261); details: microsomes
CYP2C19, sequence (P33261 whole entry): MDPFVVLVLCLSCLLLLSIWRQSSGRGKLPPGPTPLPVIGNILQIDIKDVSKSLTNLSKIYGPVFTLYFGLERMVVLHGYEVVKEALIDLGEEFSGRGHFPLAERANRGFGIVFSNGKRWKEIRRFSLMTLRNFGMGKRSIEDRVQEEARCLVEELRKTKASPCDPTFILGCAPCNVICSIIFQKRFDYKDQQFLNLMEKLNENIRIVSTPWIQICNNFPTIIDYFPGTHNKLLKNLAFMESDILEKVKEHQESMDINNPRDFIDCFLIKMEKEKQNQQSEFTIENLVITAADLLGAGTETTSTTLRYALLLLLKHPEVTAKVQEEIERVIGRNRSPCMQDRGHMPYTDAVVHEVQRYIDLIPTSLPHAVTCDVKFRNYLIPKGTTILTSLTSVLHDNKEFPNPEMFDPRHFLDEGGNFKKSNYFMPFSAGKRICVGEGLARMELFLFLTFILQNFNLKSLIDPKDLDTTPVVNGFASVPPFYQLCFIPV

in vitro = details: cynomolgus monkey, plasma, pH 7.4
CYP2C8 = biological target: T2, CYP2C8 (Homo sapiens, UniProt P10632); details: microsomes
T2 sequence (P10632 1-490): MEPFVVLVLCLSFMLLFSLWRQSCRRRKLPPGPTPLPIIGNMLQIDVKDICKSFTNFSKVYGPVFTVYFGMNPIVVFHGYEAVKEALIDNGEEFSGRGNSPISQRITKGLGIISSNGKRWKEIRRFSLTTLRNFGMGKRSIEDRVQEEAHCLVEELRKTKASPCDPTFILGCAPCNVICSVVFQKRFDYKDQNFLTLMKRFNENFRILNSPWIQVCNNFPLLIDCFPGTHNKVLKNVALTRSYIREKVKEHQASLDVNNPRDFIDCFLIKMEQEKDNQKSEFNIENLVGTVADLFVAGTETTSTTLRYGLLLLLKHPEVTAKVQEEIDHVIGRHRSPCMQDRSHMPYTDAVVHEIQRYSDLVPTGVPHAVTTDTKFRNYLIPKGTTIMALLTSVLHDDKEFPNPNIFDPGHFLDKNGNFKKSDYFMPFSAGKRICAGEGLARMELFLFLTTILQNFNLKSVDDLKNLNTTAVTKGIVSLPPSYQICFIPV

[8] = Metabolic stability in cryopreserved CD-1 mouse hepatocytes; format: in vitro ADME; details: CD-1 mouse hepatocytes 0.5 million cells/mL; for CLint scaled: mouse, hepatocytes, 2 μM
[9] = cryopreserved hepatocytes, read-out: % Remaining at 30 min

% Protein Bound Mean ± SD [1]: 26.4 ± 21.6%
% Protein Free Mean ± SD [1]: 73.6 ± 21.6%
fraction unbound at 2.5 h, 2 µM ([2]; cynomolgus monkey): 0.736 ± 0.216
remaining at 2.5 h, 2 µM ([2]; monkey): 25.9%
% Inhibition at 50 µM No PI + NADPH (CYP1A2): −18.0%
% Inhibition at 50 µM No PI − NADPH (CYP1A2): −20.7%
% Inhibition at 50 µM PI + NADPH (CYP1A2): 0.1%
% Inhibition at 50 µM PI − NADPH (CYP1A2): −15.8%
CLint scaled ([3]; CD-1 mouse liver microsomes 0.5 mg protein/mL, 2 μM): 170 mL/min/kg
half-life at 2 µM ([3]; pooled liver microsomes, pH 7.4, CD-1 mouse liver microsomes 0.5 mg protein/mL): 32 min
remaining at 2 h, 2 µM ([3]; pooled liver microsomes, pH 7.4, CD-1 mouse liver microsomes 0.5 mg protein/mL, read-out: % Remaining at 120 min): 0.8%
% Inhibition at 50 µM No PI + NADPH (CYP2C9): 8.6%
% Inhibition at 50 µM No PI − NADPH (CYP2C9): 0.4%
% Inhibition at 50 µM PI + NADPH (CYP2C9): 1.7%
% Inhibition at 50 µM PI − NADPH (CYP2C9): 0.5%
remaining at 2.5 h, 2 µM ([4]; pH 7.4): 14.6%
fraction unbound at 2.5 h, 2 µM ([4]; pH 7.4, Fu (Unbound Fraction) Mean ± SD, CD-1 mouse plasma (K2EDTA), 2 μM, 2.5 h at 37 °C): 0.847 ± 0.246
% Protein Bound Mean ± SD [5]: 15.3% and 15.3 ± 24.6%
% Protein Free Mean ± SD [5]: 84.7 ± 24.6%
CLint scaled ([6]; 2 μM): 465 mL/min/kg
half-life at 2 µM ([6]; cryopreserved hepatocytes): 12.1 min
remaining at 0.5 h, 2 µM [6, 9]: 18.5%
CLint scaled ([7]; Human liver microsomes 0.5 mg protein/mL, 2 μM): 61.5 mL/min/kg
half-life at 2 µM ([7]; pooled liver microsomes, pH 7.4, Human liver microsomes 0.5 mg protein/mL): 20.3 min
remaining at 2 h, 2 µM ([7]; pooled liver microsomes, pH 7.4, Human liver microsomes 0.5 mg protein/mL, read-out: % Remaining at 120 min): 1.4%
% Inhibition at 50 µM No PI + NADPH (CYP2C19): −26.4%
% Inhibition at 50 µM No PI − NADPH (CYP2C19): −9.4%
% Inhibition at 50 µM PI + NADPH (CYP2C19): −6.0%
% Inhibition at 50 µM PI − NADPH (CYP2C19): 19.9%
half-life at 2 µM (in vitro): 52.7 min
remaining at 2 h, 2 µM (in vitro): 21.9%
% Inhibition at 50 µM No PI + NADPH (CYP2C8): 18.7%
% Inhibition at 50 µM No PI − NADPH (CYP2C8): 14.0%
% Inhibition at 50 µM PI + NADPH (CYP2C8): 9.0%
% Inhibition at 50 µM PI − NADPH (CYP2C8): 11.4%
half-life at 2 µM ([8]; cryopreserved hepatocytes): < 15 min
remaining at 0.5 h, 2 µM [8, 9]: 0.7%
CLint scaled ([8]; read-out: CLint (L/hr/kg)): > 65.5 L/h/kg
CLint scaled ([8]; read-out: CLint (mL/min/kg)): > 65.4 L/h/kg
Sequence: LRKLRKRLLRLVGRQLEEFL [HM-10/10, LRKLRKRLLRLVGRQLEEFL]
